“Also recorded” adds a separate entry of the source.
How the values were obtained:
phosphodiesterase = conditions: stated as well established; cited from earlier work
[1] = plasma level estimate in 25 kg dogs; type: in vivo; conditions: 200 mg i.v. in 25 kg dogs
Text: (§1) The ECG was continuously monitored.

[2] = system: LV contractility in conscious dogs; assay: cardiac performance in conscious dogs before and after pacing-induced heart failure (pressure-dimension relations); type: in vivo; conditions: for PRSW (slope of stroke work/end-diastolic dimension relation): 200 mg infused over 30 minutes in the right atrium
Text: 1. Surgical preparation for chronic dog protocol. Male mongrel dogs (20-30 kg) were anesthetized with 1-2% halothane after induction with sodium pentothal. The chest was opened via a lateral thoracotomy, and indwelling catheters (Tygon; Norton Plastics and Synthetic Division) were secured in the right atrium (for drug infusion) and in the descending aorta (for pressure measurement). An indwelling high fidelity micromanometer (P22, Konigsberg Instruments) was placed in the left ventricle (LV) through an apical stab. […] Pacing leads were attached to the left atrium for acute pacing during experimentation, and epicardial leads for chronic pacing were attached to the right ventricular free wall and connected to a programmable pacemaker (Spectrax, Medtronics) within a subcutaneous pocket. The chest was closed in layers, catheters and leads were externalized to the mid-scapulae, and protected by an external jacket. Analgesia (morphine, 10 mg s.c.) was given in the immediate postoperative period as necessary. Antibiotics were administered for the first 72 hours after surgery. The dogs were allowed to recover fully for 7-10 postoperative days before experimentation. The surgical and experimental protocol was approved by Johns Hopkins School of Medicine Animal Care and Use Committee.
3. Heart failure was induced by chronic rapid ventricular pacing at a rate of 210 bpm for 3 weeks, followed by 240 bpm for one week. […] Acute pacing (140 bpm) was used to keep heart rate constant during the experiments.
a. The analysis of pressure-dimension relationships and the arterial pressure response allowed the evaluation of variables related to myocardial systolic and diastolic performance. […] Preload was indexed as the left ventricular end diastolic anterior -posterior short axis dimension (LVEDD) or the LV end-diastolic volume from the conductance catheter. Afterload was evaluated as effective arterial elastance (Ea, ratio of LV systolic pressure to stroke dimension (Kass, D. A. 1997, Myocardial Mechanics. In Heart Failure. P. Poole-Wilson et al., eds. Churchill Livingstone, New York. 87-108; Kelly, R. P., C. T. Ting, and T. M. Yang. 1992, Circulation 86:513-521). This parameter is not preload-dependent and has been validated to reflect total afterload, which incorporates systemic vascular resistance, aortic impedance, and the reflected wave properties of the vasculature. Contractility was indexed by +dP/dt and the load-independent parameter, preload-recruitable stroke work (PRSW; slope of stoke work/end-diastolic dimension relation) (Kass, D. A., 1986, Circulation 73:586-595). Diastolic performance was measured by peak −dP/dt, time to peak filling rate (ttpf), and the time constant of relaxation (tau). Tau was calculated using the method of Weiss and colleagues (Ingwall, J. S. 1993, Circulation 87:VII-58-VII-62.).
as §1

[3] = value used for the dose extrapolation in 25 kg dogs; cited from earlier work
canine left ventricle = assay: cardiac energetics (O2 consumption, mechanical efficiency) in anesthetized control and heart failure dogs; type: in vivo
Description: 3. Heart failure was induced by chronic rapid ventricular pacing at a rate of 210 bpm for 3 weeks, followed by 240 bpm for one week. This brought the dogs into heart failure with an average left ventricular end-diastolic pressure (LVEDP) of 23.5∀5.2 mm Hg. Acute pacing (140 bpm) was used to keep heart rate constant during the experiments.
b. Oxygen consumption per unit time (MVO2) in the left circumflex artery territory was calculated from the difference in oxygen saturation in simultaneously sampled coronary sinus and aortic blood, multiplied by left circumflex coronary blood flow. This, in turn, was calculated from flow velocity multiplied by left circumflex diameter. Left circumflex diameter was analyzed from a film projector (CAP 35B, Angiogram Projection System) using quantitative angiography (Cath View v1.36, Image Comm Systems).
c. The external useful work of the LV was indexed as stroke work (SW=area of pressure-volume loops). Both stroke SW and MVO2 were converted to Joules per beat (Suga, H. et al. 1983, Circ. Res. 53:306-318). Cardiac mechanical efficiency was calculated as SW/MVO2. Hemodynamic pressure-dimension data were digitized at 200 Hz and stored for subsequent analysis on a personal computer using customized software.
Isoflurane was chosen as the anesthetic because of its relatively mild and stable effect on the cardiovascular system (R M. Jones, British Journal of Anaesthesia, 56 Suppl 1:57S-69S (1984); E. I. Eger, British Journal of Anaesthesia, 56 Suppl 1:71S-99S (1984)). A doppler flow velocimeter (0.014 Cardiometrics) and a 6 Fr. angiography catheter (AL-I or JL 3.5, Cordis Laboratories Inc) were inserted through an 8 Fr sheath (Cordis) in the right femoral artery and advanced to the left circumflex coronary artery. These catheters permitted measurement of coronary flow and injection of contrast for the measurement of coronary diameter. A catheter (A2 multipurpose, 6 Fr.) was advanced from the left external jugular vein via a 7 Fr. sheath (Cordis) into the great cardiac vein for withdrawal of mixed coronary venous blood. To measure cardiac oxygen consumption, blood samples from the coronary sinus and the femoral artery were obtained simultaneously. At each time point, blood flow velocity in the left circumflex artery was measured and coronary angiography was performed.
In 4 of 11 experiments, preexisting indwelling sonomicrometer crystals, Konigsberg micromanometers, and IVC occluders (see above) were used for dimension and pressure measurements, and for acute preload reduction. In the other 7 experiments, a combined micromanometer-conductance catheter (M!illar) was advanced to the LV and positioned for continuous measurement of LV pressure and volume via a 7 Fr. sheath (Cordis) in the femoral artery. A Swan-Ganz catheter (Arrow, 7 Fr.) was advanced via a 9F sheath in the femoral vein to the pulmonary artery for measurement of cardiac output and for hypertonic saline wash-in (Baan, J., E. van der Velde, A. D. van Dijk and et al. 1992, In Cardiovascular system dynamics: Models and measurements. Anonymous Plenum Press, New York, 569; Kass, D. A. et al. 1986. Circulation 73:586-595) to calibrate the volume signal. This catheter was then replaced with a balloon occlusion catheter (Cordis) positioned in the IVC for acute preload reduction for pressure-volume analysis.
A combined manometer-conductance catheter was positioned in the left ventricle for continuous measurement of volume and pressures in the ventricle and aorta. Volume was calibrated with measurement of cardiac output and hypertonic saline wash-in. In addition, dogs were acutely instrumented a doppler flow velocimeter probe and an angiography catheter in the left circumflex coronary artery to measure coronary flow velocity and coronary diameter. […]

cardiac muscle = assay: steady-state analysis of calcium sensitivity (steady-state force versus steady-state [Ca2+]i); type: cell-based, rat; conditions: for effects on calcium sensitivity, comparison of the two agents: FIG. 4
Text: A particularly rigorous method of assessing calcium sensitivity is by steady-state analysis by procedures disclosed in Gao, W. D. et al., supra. […] That response represents defining characteristics of a calcium-sensitizing agent.

[4] = after a standard dose (300 mg p.o.); cited from earlier work
rat cardiac muscle = assay: in vitro calcium-sensitizing assay: contractile force and fura-2 [Ca2+]i in rat cardiac muscle

In the case of Oc1ncnc2[nH]ncc12 [allopurinol, 4-hydroxy-pyrazolo[3,4-d]pyrimidine], the phosphodiesterase inhibition (phosphodiesterase) is listed as “no phosphodiesterase inhibition”, the “plasma level estimated to be attained” value [1] is listed as 4500 ng/mL and the “effect on healthy dogs” value ([2]; acted only in dogs with heart failure) is listed as “did not adversely affect healthy dogs”. The “PRSW (slope of stroke work/end-diastolic dimension relation)” value ([2]; after pacing-induced heart failure) was “increased the slope after heart failure”, the “change of (dP/dt)max at the peak response” value ([2]; control dogs (n=10), 10 min after end of infusion, p=0.01) was “+8.3±3.2%” and the “(dP/dt)max at the peak response” value ([2]; control dogs (n=10), 10 min after end of infusion, base line value 3101±162) was 3373±225 mm Hg/s. The “PRSW (slope of stroke work/end-diastolic dimension relation)” value ([2]; control dogs) was “did not affect the slope of the PRSW relation; also recorded: not significantly changed”, the “effect on diastolic function” value ([2]; in vivo use, dogs) was “no adverse effect on diastolic function” and the distribution volume [3] was 1.6 L/kg. The oxygen utilization (canine left ventricle; failing canine left ventricle, 200 mg iv) was “decreases oxygen utilization”, the “myocardial arterio-venous oxygen difference” value (canine left ventricle; heart failure dogs, 200 mg iv) was “not changed” and the “change in left circumflex blood flow” value (canine left ventricle; heart failure dogs, 10 min post-infusion of 200 mg iv over 30 minutes, p=0.0015) was −40±6%. The “effects on calcium sensitivity, comparison of the two agents” value (cardiac muscle) was “essentially indistinguishable effects on calcium sensitivity”, the maximal force (cardiac muscle; steady-state analysis, FIG. 2) was “increased maximal force” and the “contractile activation curve (steady-state force vs steady-state [Ca2+]i)” value (cardiac muscle; versus control muscles exposed to no drug, FIG. 2) was “shifted the contractile activation curve to lower [Ca^2+]i”. For the same molecule, the “plasma levels achieved in humans” value [4] was 3000 to 9000 ng/mL, the “calcium ion concentration ([Ca2+]i)” value (rat cardiac muscle; fura-2, FIG. 1) was “decreasing calcium ion concentration” and the contractile force (rat cardiac muscle; relative to control not exposed, FIG. 1) was “increases contractile force”.

For CC(CCc1ccc(O)cc1)NCCc1ccc(O)c(O)c1 (centres unmarked) [dobutamine], the “increase of oxygen consumption” value (canine left ventricle; heart failure dogs, infusion 10 μg/Kg/min, p=0.007) was 145±53.0%, the “change of SW/MVO2” value (canine left ventricle; heart failure dogs, infusion 10 μg/Kg/min, p=0.05) was −29.3±6.8% and the mechanical efficiency (canine left ventricle; heart failure dogs, infusion 10 μg/Kg/min, FIG. 9) was “significant decrease in mechanical efficiency”.

For Oc1nc(O)c2cn[nH]c2n1 [oxypurinol, 4,6-dihydroxypyrazolo[3,4-d]pyrimidine], the “effects on calcium sensitivity, comparison of the two agents” value (cardiac muscle) was “essentially indistinguishable effects on calcium sensitivity” and the “force at any given [Ca2+]i” value (cardiac muscle; treated versus control muscles, FIG. 3) was “generate more force at any given [Ca^2+]i than control muscles”.

— US6569862B1, “Methods for treatment of disorders of cardiac contractility” (Johns Hopkins University, priority 1997, dated 2003)
